Assay results as given in patent US20260053812A1, “METHODS OF TREATING HYPERTENSION WITH A COMBINATION OF AN ALDOSTERONE SYNTHASE INHIBITOR AND A DIURETIC” (Mineralys Therapeutics, Inc., priority 2022, published 2026).

Assay: Adverse events (TEAEs, SAEs, AESI; Safety Analysis Set)
Excerpt: In analyses performed on the Safety Analysis Set, subjects will be analyzed according to their actual treatment received.

## CC(=O)N[C@H]1CC[C@H](NC(=O)CN2CCN(c3nncc(-c4ccc(C)cc4)n3)CC2)CC1 [Compound A HBr]
Part 1, 12.5 mg QD (N = 23)
  On-treatment TEAE, Vascular disorders, Mild, %: (8.7) %
  On-treatment TEAE, Vascular disorders, Moderate, %: (4.3) %
  Subjects with any On-treatment TEAEs leading to withdrawal from study drug, %: (17.4) %
  Subjects with any On-treatment TEAEs, Mild, %: (52.2) %
  Subjects with any On-treatment TEAEs, Moderate, %: (13.0) %
  Subjects with any On-treatment TEAEs, Severe, %: (4.3) %
  TEAE leading to permanent discontinuation from study drug, Cardiac disorders, %: (4.3) %
  TEAE leading to permanent discontinuation from study drug, Coronary artery disease, %: (4.3) %
  TEAE leading to permanent discontinuation from study drug, Dizziness, %: (4.3) %
  TEAE leading to permanent discontinuation from study drug, Hyperkalaemia, %: (8.7) %
  TEAE leading to permanent discontinuation from study drug, Metabolism and nutrition disorders, %: (8.7) %
  TEAE leading to permanent discontinuation from study drug, Nervous system disorders, %: (4.3) %
Part 1, 25 mg BID (N = 30)
  On-treatment TEAE, Blood and lymphatic system disorders, %: (6.7) %
  On-treatment TEAE, Blood and lymphatic system disorders, Mild, %: (6.7) %
  On-treatment TEAE, Cortisol decreased, %: (3.3) %
  On-treatment TEAE, Cortisol decreased, Mild, %: (3.3) %
  On-treatment TEAE, Gastrointestinal disorders, %: (3.3) %
  On-treatment TEAE, Gastrointestinal disorders, Mild, %: (3.3) %
  On-treatment TEAE, Headache, %: (6.7) %
  On-treatment TEAE, Headache, Mild, %: (6.7) %
  On-treatment TEAE, Hyperkalaemia, %: (30.0) %
  On-treatment TEAE, Hyperkalaemia, Mild, %: (23.3) %
  On-treatment TEAE, Hyperkalaemia, Moderate, %: (6.7) %
  On-treatment TEAE, Hypertension, %: (3.3) %
  On-treatment TEAE, Infections and infestations, %: (10.0) %
  On-treatment TEAE, Infections and infestations, Mild, %: (6.7) %
  On-treatment TEAE, Infections and infestations, Moderate, %: (3.3) %
  On-treatment TEAE, Investigations, %: (10.0) %
  On-treatment TEAE, Investigations, Mild, %: (6.7) %
  On-treatment TEAE, Investigations, Moderate, %: (3.3) %
  On-treatment TEAE, Metabolism and nutrition disorders, %: (33.3) %
  On-treatment TEAE, Metabolism and nutrition disorders, Mild, %: (26.7) %
  On-treatment TEAE, Metabolism and nutrition disorders, Moderate, %: (6.7) %
  On-treatment TEAE, Nervous system disorders, %: (10.0) %
  On-treatment TEAE, Nervous system disorders, Mild, %: (6.7) %
  On-treatment TEAE, Urinary tract infection, %: (10.0) %
  On-treatment TEAE, Urinary tract infection, Mild, %: (6.7) %
  On-treatment TEAE, Vascular disorders, %: (3.3) %
  On-treatment TEAE, Vascular disorders, Mild, %: (3.3) %
  Subjects with any On-treatment TEAEs leading to withdrawal from study drug, %: 3.3%
  Subjects with any On-treatment TEAEs, Mild, %: (46.7) %
  Subjects with any On-treatment TEAEs, Moderate, %: (13.3) %
  TEAE leading to permanent discontinuation from study drug, Hyperkalaemia, %: 3.3%
  TEAE leading to permanent discontinuation from study drug, Hypertension, %: 3.3%
  TEAE leading to permanent discontinuation from study drug, Metabolism and nutrition disorders, %: 3.3%
  TEAE leading to permanent discontinuation from study drug, Vascular disorders, %: 3.3%
Part 1, 50 mg QD (N = 28)
  On-treatment TEAE, Cardiac disorders, %: (3.6) %
  On-treatment TEAE, Dizziness, %: (7.1) %
  On-treatment TEAE, Gastrointestinal disorders, %: (3.6) %
  On-treatment TEAE, Gastrointestinal disorders, Mild, %: (3.6) %
  On-treatment TEAE, General disorders and administration site conditions, %: (7.1) %
  On-treatment TEAE, General disorders and administration site conditions, Mild, %: (3.6) %
  On-treatment TEAE, Headache, %: (3.6) %
  On-treatment TEAE, Headache, Mild, %: (3.6) %
  On-treatment TEAE, Hyperkalaemia, %: (10.7) %
  On-treatment TEAE, Hyperkalaemia, Mild, %: (10.7) %
  On-treatment TEAE, Hypertension, %: (7.1) %
  On-treatment TEAE, Hypertension, Moderate, %: (7.1) %
  On-treatment TEAE, Infections and infestations, %: (7.1) %
  On-treatment TEAE, Infections and infestations, Moderate, %: (7.1) %
  On-treatment TEAE, Investigations, %: (3.6) %
  On-treatment TEAE, Investigations, Mild, %: (3.6) %
  On-treatment TEAE, Metabolism and nutrition disorders, %: (17.9) %
  On-treatment TEAE, Metabolism and nutrition disorders, Mild, %: (17.9) %
  On-treatment TEAE, Nervous system disorders, %: (7.1) %
  On-treatment TEAE, Nervous system disorders, Mild, %: (3.6) %
  On-treatment TEAE, Urinary tract infection, %: (7.1) %
  On-treatment TEAE, Urinary tract infection, Mild, %: (3.6) %
  On-treatment TEAE, Vascular disorders, %: (7.1) %
  On-treatment TEAE, Vascular disorders, Moderate, %: (7.1) %
  Subjects with any On-treatment TEAEs, Mild, %: (14.3) %
  Subjects with any On-treatment TEAEs, Moderate, %: (21.4) %
Part 1, 100 mg QD (N = 30)
  On-treatment TEAE, Blood creatinine increased, %: (10.0) %
  On-treatment TEAE, Blood creatinine increased, Mild, %: (10.0) %
  On-treatment TEAE, Gastrointestinal disorders, %: (6.7) %
  On-treatment TEAE, Gastrointestinal disorders, Mild, %: (6.7) %
  On-treatment TEAE, Glomerular filtration rate decreased, %: (16.7) %
  On-treatment TEAE, Glomerular filtration rate decreased, Mild, %: (13.3) %
  On-treatment TEAE, Hyperkalaemia, %: (26.7) %
